Assay results taken from US20170056336A1, “CO-TARGETING ANDROGEN RECEPTOR SPLICE VARIANTS AND MTOR SIGNALING PATHWAY FOR THE TREATMENT OF CASTRATION-RESISTANT PROSTATE CANCER” (British Columbia Cancer Agency Branch, priority 2015, published 2017).

What was measured:
[1] = tested on: mTOR and AR pathways in parental LNCaP cells; assay: Western blot analysis of mTOR and AR pathways in parental LNCaP cells; type: cell-based, human; details: BEZ-235 15 nM
AR NTD [2] = biological target: T1, AR NTD (Homo sapiens, UniProt P10275); assay: AR NTD transactivation assay in LNCaP cells; type: cell-based; details: 24 h
T1 sequence (P10275 1-558): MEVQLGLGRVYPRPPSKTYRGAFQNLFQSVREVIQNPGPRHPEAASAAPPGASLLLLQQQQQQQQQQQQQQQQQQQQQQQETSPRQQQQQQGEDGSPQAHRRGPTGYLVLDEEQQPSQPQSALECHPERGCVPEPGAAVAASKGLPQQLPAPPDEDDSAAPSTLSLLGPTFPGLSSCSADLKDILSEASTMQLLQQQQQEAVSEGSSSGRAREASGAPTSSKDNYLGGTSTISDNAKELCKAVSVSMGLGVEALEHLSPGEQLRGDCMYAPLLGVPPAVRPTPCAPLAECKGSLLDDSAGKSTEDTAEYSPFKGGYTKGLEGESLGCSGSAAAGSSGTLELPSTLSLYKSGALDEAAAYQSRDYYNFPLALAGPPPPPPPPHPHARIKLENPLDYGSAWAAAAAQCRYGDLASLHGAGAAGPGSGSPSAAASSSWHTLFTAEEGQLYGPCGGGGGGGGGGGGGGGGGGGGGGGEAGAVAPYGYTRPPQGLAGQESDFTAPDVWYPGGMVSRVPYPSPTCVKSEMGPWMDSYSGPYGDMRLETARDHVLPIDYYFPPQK
Method: (§1) Transactivation assays of the AR NTD were performed in LNCaP and LNCaP95 cells cotransfected with p5xGal4UAS-TATA-luciferase and AR NTD-Gal4DBD (FIG. 2D). […] LNCaP95 cells were harvested 24 h after the treatment of indicated compounds.
(§2) The AR NTD is essential for full transcriptional activities (Quayle, S. N. et. al., PNAS 2007, 104, 1331-1336). In LNCaP cells, transactivation of the AR NTD can be induced with IL-6 or by stimulation of the PKA pathway with FSK. In LNCaP95 cells, there is high intrinsic activity of the AR NTD which cannot be further induced by stimulation of these pathways.

AR NTD [3] = biological target: T1, AR NTD; assay: AR NTD transactivation assay in LNCaP95 cells; type: cell-based; details: 24 h
Method: as §1, §2

[4] = tested on: genes regulated by FL-AR and AR-V7 in LNCaP95 cells; assay: Gene expression analysis (quantitative real-time RT-PCR) in LNCaP95 cells; type: cell-based, human
LNCaP95 cells = assay: Cell proliferation BrdU immunoassay; type: cell-based, human; details: R1881 0.1 nM, 48 h, serum-free, Compound A 25 uM, enzalutamide 10 uM, BEZ-235 15 nM, everolimus 10 nM
LNCaP95 xenografts [5] = assay: Western blot analyses of protein lysates from xenografts; type: in vivo, mice
LNCaP95 xenografts [6] = assay: Immunohistochemistry of harvested xenografts; type: in vivo, mice; details: immunohistochemistry
CDK1 = CDK1 (Homo sapiens, UniProt P06493); details: higher concentrations; read-out: concentration inhibiting CDK1; cited from earlier work
CDK1, sequence (P06493 whole entry, species assumed): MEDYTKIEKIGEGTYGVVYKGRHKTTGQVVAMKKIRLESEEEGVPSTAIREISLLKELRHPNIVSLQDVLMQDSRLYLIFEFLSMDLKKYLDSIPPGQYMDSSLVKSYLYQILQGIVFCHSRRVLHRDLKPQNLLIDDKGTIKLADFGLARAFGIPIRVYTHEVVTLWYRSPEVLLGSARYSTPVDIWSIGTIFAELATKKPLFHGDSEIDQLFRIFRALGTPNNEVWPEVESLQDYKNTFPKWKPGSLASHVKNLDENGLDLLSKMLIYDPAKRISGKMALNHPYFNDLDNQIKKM
CDK1, sequence (P14635 whole entry partner, species assumed): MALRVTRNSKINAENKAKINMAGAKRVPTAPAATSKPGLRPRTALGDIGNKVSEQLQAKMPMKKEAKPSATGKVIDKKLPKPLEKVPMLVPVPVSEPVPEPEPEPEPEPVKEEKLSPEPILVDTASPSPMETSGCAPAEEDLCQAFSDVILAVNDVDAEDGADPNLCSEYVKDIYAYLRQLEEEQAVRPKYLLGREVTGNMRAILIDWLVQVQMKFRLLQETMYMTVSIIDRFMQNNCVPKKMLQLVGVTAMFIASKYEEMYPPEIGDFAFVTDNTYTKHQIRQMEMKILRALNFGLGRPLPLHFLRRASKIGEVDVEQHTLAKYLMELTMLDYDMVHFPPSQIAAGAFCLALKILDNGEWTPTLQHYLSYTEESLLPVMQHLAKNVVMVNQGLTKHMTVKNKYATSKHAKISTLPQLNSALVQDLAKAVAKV

AR = biological target: T2, AR (Homo sapiens, UniProt P10275, T878A); assay: PSA-, ARR3-, PB-luciferase AR reporter assay in LNCaP95 cells; details: LNCaP95 cells treated with androgen, BEZ-235 15 nM
T2 sequence (P10275 1-920 T878A): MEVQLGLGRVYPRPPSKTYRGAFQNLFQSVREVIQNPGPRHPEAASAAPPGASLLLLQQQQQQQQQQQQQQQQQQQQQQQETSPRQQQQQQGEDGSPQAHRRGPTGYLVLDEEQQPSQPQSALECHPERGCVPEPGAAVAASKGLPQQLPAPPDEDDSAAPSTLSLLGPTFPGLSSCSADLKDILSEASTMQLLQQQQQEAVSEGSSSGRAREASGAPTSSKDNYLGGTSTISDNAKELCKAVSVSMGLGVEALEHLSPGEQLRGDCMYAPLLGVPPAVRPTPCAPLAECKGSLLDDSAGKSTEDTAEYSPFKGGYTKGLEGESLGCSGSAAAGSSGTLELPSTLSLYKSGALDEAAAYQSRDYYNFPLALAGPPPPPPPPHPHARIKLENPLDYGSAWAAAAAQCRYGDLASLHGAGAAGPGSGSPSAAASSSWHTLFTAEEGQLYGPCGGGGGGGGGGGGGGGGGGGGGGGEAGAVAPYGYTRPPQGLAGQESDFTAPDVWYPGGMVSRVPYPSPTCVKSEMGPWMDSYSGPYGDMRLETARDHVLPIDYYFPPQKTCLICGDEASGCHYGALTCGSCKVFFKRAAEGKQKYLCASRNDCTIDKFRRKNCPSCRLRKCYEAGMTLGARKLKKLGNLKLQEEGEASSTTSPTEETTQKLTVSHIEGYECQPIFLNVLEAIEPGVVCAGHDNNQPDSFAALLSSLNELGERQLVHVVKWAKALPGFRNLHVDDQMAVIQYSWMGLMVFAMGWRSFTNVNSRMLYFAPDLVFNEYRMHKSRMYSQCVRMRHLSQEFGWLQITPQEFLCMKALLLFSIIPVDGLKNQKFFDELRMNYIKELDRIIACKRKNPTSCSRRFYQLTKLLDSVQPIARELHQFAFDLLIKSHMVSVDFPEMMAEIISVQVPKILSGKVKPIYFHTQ

[7] = harvested tumors, Compound A 100 mg/kg, BEZ-235 5 mg/kg
[8] = xenografts harvested 1 h after last treatment, BEZ-235 5 mg/kg

Cn1c(=O)n(-c2ccc(C(C)(C)C#N)cc2)c2c3cc(-c4cnc5ccccc5c4)ccc3ncc21 [BEZ-235, 2-methyl-2-[4-(3-methyl-2-oxo-8-quinolin-3-ylimidazo[4,5-c]quinolin-1-yl)phenyl]propanenitrile]
pAkt ([1]; LNCaP cells): no effect
levels of FL-AR ([1]; parental LNCaP cells, absence of androgen): increased
PSA protein ([1]; parental LNCaP cells, regardless of androgen status): increased
AR-NTD transactivation induced by FSK (AR NTD [2]; FSK 50 uM): no effect
AR-NTD transactivation induced by IL-6 (AR NTD [2]; IL-6 50 ng/ml): significantly inhibited
intrinsic activity of AR NTD (AR NTD [3]): no effect
TMPRSS2 or FKBP5 transcripts in response to BEZ-235 [4]: No similar effects
levels of FL-AR transcript [4]: did not increase
increase in transcript levels of AR-V7 ([4]; absence of androgen): greater than 2 fold
levels of PSA transcript ([4]; absence of androgen): induced
transcript levels of AR-V7 target genes (UBE2C, CDC20, Akt1) ([4]; absence of androgen): consistently reduced
androgen-induced levels of PSA transcripts ([4]; compared to androgen alone): significantly increased
UBE2C levels ([4]; monotherapy, regardless of androgen): attenuated
proliferation (BrdU incorporation) (LNCaP95 cells): inhibited
levels of p4EBP1 (LNCaP95 xenografts [5]; harvested tumors, normalized to total 4EBP1): no significant change
levels of pAkt (LNCaP95 xenografts [5]; harvested tumors, normalized to total Akt): no significant change
protein levels of UBE2C (LNCaP95 xenografts [5]; [7]): reduced
protein levels of pS6 (LNCaP95 xenografts [5]; [7]): reduced
protein levels of FKBP5 (LNCaP95 xenografts [5]; in vivo, monotherapies): reduced
protein levels of AR-V7 (LNCaP95 xenografts [5]; [8]): reduced
protein levels of FL-AR (LNCaP95 xenografts [5]; [8]): reduced
UBE2C staining (LNCaP95 xenografts [6]): reduced
pS6 staining (LNCaP95 xenografts [6]): reduced
IC50 (CDK1): > 10 µM
PSA-, ARR3- and PB-luciferase activities (AR): significantly increased
